Measurements taken from patent US10836734B2, “Spiroquinone derivative compound, production method thereof, and pharamaceutical composition for preventing or treating neurological disorders which contains same as active ingredient” (GACHON UNIVERSITY OF INDUSTRY-ACADEMIC COOPERATION …, priority 2016, dated 2020).

Legend:
[1] = biological target: acetylcholine esterase (eeAChE, EC 3.1.1.7) (Electrophorus electricus, UniProt O42275); experiment: Acetylcholine esterase inhibition activity (ACh quantification colorimetric assay kit); assay type: biochemical; settings: read-out: Residual activity of acetylcholine esterase (%); for remaining activity at 10 µM: 10 μM compound; for remaining activity at 30 µM: 30 μM compound
Method: Particularly, a quantitative kit (ACh quantification colorimetric assay kit from BioVision) was prepared in order to quantify acetylcholine esterase (eeAChE, EC 3.1.1.7) and acetylcholine chloride (ACh) of Electrophorus electricus and acetylcholine. To measure the enzyme inhibition activity of the compound of the example of the invention, the following experiment was performed based on the standardized method of the manufacturer of the Ach kit (Draczkowski, P. et al. Bba-Gen Subjects 1860, 967-974, doi:10.1016/j.bbagen.2015.11.006 (2016)).
First, acetylcholine esterase (eeAChE, EC 3.1.1.7) was dissolved in […] Tris-HCL buffer at the concentration of 5 μM. Acetylcholine chloride was dissolved in 20 mM Tris-HCL buffer, resulting in the preparation of a Tris-HCL aqueous solution containing 10 μM acetylcholine chloride. The compound of the example was prepared in different concentrations of 10 μM and 30 μM. The prepared acetylcholine chloride solution and the compound solution were mixed in 20 μM acetylcholine esterase. 20 minutes and 30 minutes after mixing, the color change of the quantitative kit was measured at 570 nm in order to evaluate the inhibitory effect of the compound particularly to inhibit acetylcholine esterase that decomposes acetylcholine into choline.
All the experiments were repeated at least twice, from which the mean values and the standard deviations were calculated.

[2] = system: murine microglial BV-2 cells; experiment: Quantification of nitrite generation in LPS treated nerve cell line; assay type: cell-based; settings: Mus musculus; LPS treated BV-2 cells; FIG. 5; read-out: IC50 for nitric oxide
Method: Particularly, in order to quantify the nitrite generation in the LPS treated nerve cell line, nitrite generated from nitric oxide secreted therein was quantified. With the quantified nitrite, the inhibition of microglial activation and the neuron protection effect thereby were examined. The nerve cell line (BV2) was treated with LPS ([…]), and then treated with the compound of the present invention at different concentrations of 0.01 μM, 0.1 μM and 1 μM, or 1 μM, 5 μM and 10 μM (Con: DMSO treated group (not treated with the compound of the invention and LPS), LPS: LPS treated group ([…])).
Further, IC50 was calculated from the quantification of nitric oxide measured by concentration gradient in FIGS. 1 and 3, and the results are shown in FIG. 5.

acetylcholine esterase (eeAChE, EC 3.1.1.7), sequence (O42275 24-633): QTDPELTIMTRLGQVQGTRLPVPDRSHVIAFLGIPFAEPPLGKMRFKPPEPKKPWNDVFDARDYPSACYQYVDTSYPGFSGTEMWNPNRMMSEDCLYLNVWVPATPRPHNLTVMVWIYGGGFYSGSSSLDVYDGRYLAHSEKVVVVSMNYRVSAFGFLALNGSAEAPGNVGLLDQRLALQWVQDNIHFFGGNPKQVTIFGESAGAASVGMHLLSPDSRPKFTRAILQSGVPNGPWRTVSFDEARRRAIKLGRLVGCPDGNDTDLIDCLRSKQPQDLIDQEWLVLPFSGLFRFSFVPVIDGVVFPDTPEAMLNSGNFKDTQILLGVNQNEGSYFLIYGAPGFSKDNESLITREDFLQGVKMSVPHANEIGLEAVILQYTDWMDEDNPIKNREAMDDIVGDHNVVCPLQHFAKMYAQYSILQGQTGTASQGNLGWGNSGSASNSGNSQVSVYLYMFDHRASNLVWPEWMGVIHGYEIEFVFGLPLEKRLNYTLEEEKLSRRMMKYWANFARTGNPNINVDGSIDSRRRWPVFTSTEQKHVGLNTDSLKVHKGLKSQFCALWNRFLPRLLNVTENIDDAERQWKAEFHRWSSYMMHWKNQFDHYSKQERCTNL

Compound	remaining activity at 10 µM [1]	remaining activity at 30 µM [1]	IC50 [2]
CC1COC2(C=CC(=O)C=C2)N(c2ccccc2)C1=O (stereo not drawn) [Example 2, 3-methyl-5-phenyl-1-oxa-5-azaspiro[5,5]undeca-7,10-diene-4,9-dione]	29.7%	7.03%	
C=CCC1COC2(C=CC(=O)C=C2)N(c2ccccc2)C1=O (stereo not drawn) [Example 3, 3-allyl-5-phenyl-1-oxa-5-azaspiro[5,5]undeca-7,10-diene-4,9-dione]	30.3%	-2.03%	
O=C1C=CC2(C=C1)OCC(Cc1ccccc1)C(=O)N2c1ccccc1 (stereo not drawn) [Example 6, 3-benzyl-5-phenyl-1-oxa-5-azaspiro[5,5]undeca-7,10-diene-4,9-dione]	40.2%	6.07%	
O=C1C=CC2(C=C1)OCC(Cc1ccc(F)cc1)C(=O)N2c1ccccc1 (stereo not drawn) [Example 7, 3-(4-fluoro-benzyl)-5-phenyl-1-oxa-5-azaspiro[5,5]undeca-7,10-diene-4,9-dione]	46.7%	4.74%	
O=C1C=CC2(C=C1)OCC(Cc1ccc(Br)cc1)C(=O)N2c1ccccc1 (stereo not drawn) [Example 10, 3-(4-bromo-benzyl)-5-phenyl-1-oxa-5-azaspiro[5,5]undeca-7,10-diene-4,9-dione]	27.3%	12.9%	
O=C1C=CC2(C=C1)OCC(Cc1ccc(C(F)(F)F)cc1)C(=O)N2c1ccccc1 (stereo not drawn) [Example 11, 3-(4-trifluoromethyl-benzyl)-5-phenyl-1-oxa-5-azaspiro[5,5]undeca-7,10-diene-4,9-dione]	69.4%	22.1%	
O=C1C=CC2(C=C1)OCC(Cc1cc(C(F)(F)F)cc(C(F)(F)F)c1)C(=O)N2c1ccccc1 (stereo not drawn) [Example 14, 3-(3,5-ditrifluoromethyl-benzyl)-5-phenyl-1-oxa-5-azaspiro[5,5]undeca-7,10-diene-4,9-dione]			~300 nM
O=C1C=CC2(C=C1)OCC(Cc1ccccc1)C(=O)N2c1cccnc1 (stereo not drawn) [Example 19, 3-benzyl-5-(pyridine-3-yl)-1-oxa-5-azaspiro[5,5]undeca-7,10-diene-4,9-dione]	66.1%	8.07%	
CC1COC2(C=CC(=O)C(F)=C2)N(c2ccccc2)C1=O (stereo not drawn) [Example 22, 3-methyl-8-fluoro-5-phenyl-1-oxa-5-azaspiro[5,5]undeca-7,10-diene-4,9-dione]	51.6%	2.47%	
C=CCC1COC2(C=CC(=O)C(F)=C2)N(c2ccccc2)C1=O (stereo not drawn) [Example 23, 3-allyl-8-fluoro-5-phenyl-1-oxa-5-azaspiro[5,5]undeca-7,10-diene-4,9-dione]	38.1%	5.64%	
O=C1C=CC2(C=C1F)OCC(Cc1ccccc1)C(=O)N2c1ccccc1 (stereo not drawn) [Example 24, 3-benzyl-8-fluoro-5-phenyl-1-oxa-5-azaspiro[5,5]undeca-7,10-diene-4,9-dione]	35.6%	8.89%	
CC1=CC2(C=CC1=O)OCC(C)C(=O)N2c1ccccc1 (stereo not drawn) [Example 25, 3,8-dimethyl-5-phenyl-1-oxa-5-azaspiro[5,5]undeca-7,10-diene-4,9-dione]	20.9%	8.15%	
CC1=CC2(C=CC1=O)OCC(Cc1ccccc1)C(=O)N2c1ccccc1 (stereo not drawn) [Example 28, 3-benzyl-8-methyl-5-phenyl-1-oxa-5-azaspiro[5,5]undeca-7,10-diene-4,9-dione]	55.4%	3.08%	
CN1C(=O)C(Cc2ccccc2)COC12C=CC(=O)C=C2 (stereo not drawn) [Example 33, 3-benzyl-5-methyl-1-oxa-5-azaspiro[5,5]undeca-7,10-diene-4,9-dione]	50.5%	2.08%	
